Consider four compounds from patent US12357668B2, “Anticancer activity of Buddleja saligna compositions” (University of Pretoria, priority 2019, dated 2025).

Values after ≈ are worked out from the molar mass of the structure shown. Numbered stars: 1 amine (or outer) side, 2 acyl side, 3 side chain; on linkers, the order of the positions; unused ones are H or OH. Bridge positions count the residues as written; N and C are the ends. Square brackets hold non-standard residues; d marks the D form. Peptide text beside a SMILES is read from it. I, II: the chains in the order shown. Actinocin(9to1) = Cc1c2oc3c(C)ccc(C(=O)[*:1])c3nc-2c(C(=O)[*:2])c(N)c1=O; NMeV = CN[C@H](C(=O)O)C(C)C; Sar = CNCC(=O)O

Data set [1] is described as follows: Nitric oxide scavenging activity (Griess reaction). A general note: Nitrite, measured by Griess reagent, commonly stands in for NO production.
Procedure: Briefly, 90 μl of distilled water was added to the top row of a 96-well microtitre plate and 50 μl to the rest of the wells in the plate. […] Ethanol was used as the negative control. To each well 50 μl sodium nitroprusside (10 mM) was added and the plates were incubated at room temperature for 90 min. Thereafter, 100 μl Griess reagent was added to all the wells, except for the blank plates where distilled water was added. […] All samples were tested in triplicate. The percentage inhibition of the samples was calculated using the below equation.
Where Abscontrol is the absorbance of NO radical+ethanol control; Absample is the absorbance of (NO radical+sample OR positive control)−(blank values of corresponding sample). The IC50 values for each sample were calculated using GraphPad Prism 4 software.
In data set [2] the test system is vascular endothelial growth factor (VEGF). In words: Quantification of in vitro VEGF in HaCat cells (ELISA). In kind it is cell-based. The conditions noted are these: Homo sapiens, 6 μg/ml, 6 h, read-out: inhibition of VEGF production. Here is the method:
(§1) Exponentially growing UCT-MEL-1 and HaCat cells were seeded at a concentration of 1.0×10^5 cells/well in a 24-well plate with complete medium to allow for cell adherence. After 24 h, the medium was removed and replaced with fresh complete medium. Stock concentrations of the B. saligna extract and DT-BS-01 were prepared at 1 mg/ml. The cells were treated with final concentrations of the B. saligna at 30 and 60 μg/ml; and DT-BS-01 at 5 and 20 μg/ml. Controls included a 0.15% DMSO vehicle control, cells grown in medium only and cells exposed to the positive control, ursolic acid at final concentrations of 6 μg/ml. After 6 h of treatment, the plates were centrifuged at 980 rpm for 10 min and the supernatant collected for quantification of VEGF using an ELISA kit (ThermoFisher Scientific, Johannesburg, South Africa) (Thermo Fisher, 2017). The cells viability was further determined using XTT at a final concentration of 0.3 mg/ml. The quantification of VEGF was performed according to the manufacturer's protocol (Novex® Cat #KHG0111) using a VEGF standard curve.
In general terms: An ELISA detects its analyte on a solid surface through an enzyme-linked reagent.

In data set [3] the test system is SK-MEL-2 melanoma. The conditions noted are these: SK-MEL-2 CAM model; Caunii et al., 2017; cited from earlier work.
A short description of data set [4]: in vitro. In kind it is cell-based. The conditions noted are these: human. Here is the method: as §1
The levels of VEGF secreted by UCT-MEL-1 and HaCat cells were determined after 6 h incubation with B. saligna and DT-BS-01. […] The HaCat cell viability was determined after treatment with the various samples and controls in order to determine whether inhibition of VEGF could have been due to a decrease in cell viability. […]

Data set [5] relates to UCT-MEL-1 cells. Briefly: Flow cytometry apoptosis detection (Annexin V / 7-AAD). The conditions noted are these: 0.025 μg/ml, 48 h. In kind it is cell-based, human. From the text: (§2) Phosphatidylserine (PS) is a lipid, which is present in the inner leaflet of the plasma membrane. The early stages of apoptosis are characterized by an asymmetric membrane due to the translocation of the PS lipid from the inner membrane leaflet to the outer leaflet. Once exposed to the outer cellular environment, Annexin V, which has a high affinity for PS, is able to bind to it. After the early stages of apoptosis have taken place, the plasma membrane integrity starts to disintegrate thereby allowing the uptake of 7-AAD into the cell, which is associated with late apoptosis or necrosis. […] Using Annexin V and 7-AAD staining can therefore, not distinguish between late apoptosis or necrosis, however can characterize early apoptosis. The degree of apoptosis was thus measured using the Annexin V-FITC apoptosis detection kit. […] Actinomycin D (0.025 μg/ml) was used as a positive control for apoptosis to occur. Other controls included a medium (untreated) and 0.25% DMSO vehicle control. […] An additional 400 μl binding buffer was added to each culture tube and the fluorescence was measured using an Accuri C6 flow cytometer (BD Biosciences, San Jose, CA, USA). Data from at least 10,000 cells were analyzed using the BD Accuri C6 software.
On the technique in general: A flow cytometer gives signals particle by particle.

Data set [6] relates to HaCat cells. Described as above. The conditions noted are these: 0.025 μg/ml, 48 h. The class given is cell-based, human.
Text: as §2

The test system of data set [7] is UCT-MEL-1 cells. Briefly: Light microscopy (haematoxylin and eosin staining), cell morphology. The conditions noted are these: 0.025 μg/ml, 48 h. The class given is cell-based, human. Here is the method: (§3) One of the hallmarks of cancer cells is their ability to evade apoptosis, therefore providing a suitable target for the destruction of cancer cells. The effect of B. saligna and DT-BS-01 on the morphology of UCT-MEL-1 and HaCat cells was determined using light microscopy. Light microscopy (haematoxylin and eosin staining) was used to determine the qualitative effect B. saligna (30 and 60 μg/ml) and DT-BS-01 (5 and 20 μg/ml) on the morphology of UCT-MEL-1 and HaCat cells. […] Exponentially growing UCT-MEL-1 and HaCat cells were seeded at 1.0×10^5 cells per well in a 6-well plate and incubated for 24 h at 37° C. at 5% CO2 to allow for cell adherence. […] Cells were stained (in the 6-well plate) as described by Berrington & Lall (2012). After staining, sterile PBS was added to all the wells and immediately analysed for morphological changes using a light microscope (Zeiss Primovert).
(§4) Light microscopy was performed in order to determine whether cell death, induced by B. saligna and the DT-BS-01 was mediated through apoptosis (FIG. 2 and FIG. 3). Apoptosis is described as a programmed cell death in which biochemical and morphological changes occur within the cells. […]

Data set [8] relates to HaCat cells. Described as above. In kind it is cell-based, human. The conditions noted are these: 0.025 μg/ml, 48 h. Here is the method:
as §3, §4

In data set [9] the test system is HaCat (human keratinocytes) cells. Briefly: XTT antiproliferative assay, human keratinocytes. In kind it is cell-based. The conditions noted are these: 72 h exposure. The procedure:
The cell lines were maintained in culture flasks containing Dulbecco's modified Eagle's medium (DMEM) supplemented with 10%, heat-inactivated fetal bovine serum (FBS) and 100 U/ml penicillin, 100 μg/ml streptomycin and 250 μg/ml fungizone at 37° C. and 5%, CO2. Cells were sub-cultured once an 80%, confluent monolayer had formed using trypsin-EDTA (0.25%, trypsin containing 0.01%, EDTA).
To investigate the antiproliferative potential of B. saligna and DT-BS-01, the XTT assay was performed. Antiproliferative activity was measured using the method as described by Berrington and Lall (2012) using the XTT Cell Proliferation Kit II. […] Thereafter, 50 μl XTT (0.3 mg/ml) was added to the cells and incubated for 2 h where after the absorbance was measured at 490 nm (reference wavelength of 690 nm) using a BIO-TEK power-wave XS plate reader (A.D.P, Weltevreden Park, South Africa). […] The samples were tested in triplicate and the percentage cell viability was calculated using the following equation.
Where Abscontrol is the absorbance of XTT+vehicle control and Absample is the absorbance of (XTT+sample OR positive control)−(blank values of corresponding sample). The fifty percent inhibitory concentrations (IC50) were calculated from the % cell viability using the GraphPad Prism 4 software. […]

Data set [10] relates to UCT-MEL-1 (human pigmented melanoma) cells. In words: XTT antiproliferative assay, human melanoma cells. The class given is cell-based. The conditions noted are these: HaCat versus UCT-MEL-1 IC50. The procedure: To investigate the antiproliferative potential of B. saligna and DT-BS-01, the XTT assay was performed. Antiproliferative activity was measured using the method as described by Berrington and Lall (2012) using the XTT Cell Proliferation Kit II. Cells were seeded at a concentration of 1.0×10^6 cells/ml in 96-well plates (100 μl) and allowed to adhere for 24 h. The B. saligna extract and DT-BS-01 were prepared at stock concentrations of 20 mg/ml, serially diluted and added to the 96-well plates at final concentrations ranging from 1.56-200 μg/ml. […] Cells were incubated for a further 72 h with the respective samples and controls. […] Blank plates were included which were prepared in the same manner as mentioned above, without the additional of cell, to allow for colour compensation of the samples. The samples were tested in triplicate and the percentage cell viability was calculated using the following equation. […] Where Abscontrol is the absorbance of XTT+vehicle control and Absample is the absorbance of (XTT+sample OR positive control)-(blank values of corresponding sample). […] The XTT colorimetric assay is based on the ability of viable metabolically active cells to convert a yellow tetrazolium salt to an orange formazan dye. […]

As usually defined, the inhibition is the percentage by which the read-out fell short of the control. What is called viability is a per cent measure of how many cells are alive, often set against a control.

Turning to `O=C1O[C@H]([C@@H](O)CO)C(O)=C1O` [ascorbic acid], the “NO radical scavenging activity” value in data set [1] (500 μg/ml) is on record as 75.70±0.15%. The “NO IC50 ± SD” value in [1] (NO radical scavenging) turned out to be 62.46 ± 0.46 µg/mL.
Regarding `C[C@H]1[C@H](C)CC[C@]2(C(=O)O)CC[C@]3(C)C(=CC[C@@H]4[C@@]5(C)CC[C@H](O)C(C)(C)[C@@H]5CC[C@]43C)[C@H]12` [ursolic acid], the inhibition at 6 µg/mL in data set [2] was determined as 16 ± 0.93%. Moreover, the “angiogenic potential / capillary density in CAM” value in data set [3] is recorded as “did not inhibit the density of the capillaries”. The viability at 6 h, 6 μg/ml in data set [4] stood at 96 ± 3.62%.
As for `Cc1c2oc3c(C)ccc(C(=O)N[C@@H]4C(=O)N[C@H](C(C)C)C(=O)N5CCC[C@H]5C(=O)N(C)CC(=O)N(C)[C@@H](C(C)C)C(=O)O[C@@H]4C)c3nc-2c(C(=O)N[C@@H]2C(=O)N[C@H](C(C)C)C(=O)N3CCC[C@H]3C(=O)N(C)CC(=O)N(C)[C@@H](C(C)C)C(=O)O[C@@H]2C)c(N)c1=O` [Actinomycin D] (I: T[dV]P[Sar][NMeV] / II: T[dV]P[Sar][NMeV]; ester I:1-I:C, II:1-II:C; linker I:N-II:N via Actinocin(9to1)), the “cells in late apoptosis, UCT-MEL-1” value in data set [5] came out at 99.2%. Further, the “cells in late apoptosis, HaCat” value in [6] is on record as 90.6%. The “cell morphology, UCT-MEL-1” value in data set [7] was “displayed characteristic signs of apoptosis”. In addition, the “cell morphology, HaCat” value in data set [8] is “displayed characteristic signs of apoptosis”. Further, the “IC50 on HaCat cells” value in data set [9] is 0.0092 ± 6.88e-05 µg/mL (≈ 7.33 nM). The “selectivity index (SI)” value in [10] is 3.83.
Regarding `CC1(C)CC[C@]2(C(=O)O)CC[C@]3(C)C(=CC[C@@H]4[C@@]5(C)CC[C@H](O)C(C)(C)[C@@H]5CC[C@]43C)[C@@H]2C1` [oleanolic acid], the “angiogenic potential / capillary density in CAM” value in [3] is recorded as “able to reduce the angiogenic potential”.
